Measured values: patent US20110070232A1, “Combination Therapy with an Antitumor Alkaloid” (Pharma Mar, S.A., priority 2008, published 2011)
Read-outs that look alike come from different tables or passages of the source.

Experiments:
NCI-H460 tumors = format: in vivo, mice
Text: Female athymic nude mice (Harlan Sprague Dawley, Madison, Wis.) were utilized for all experiments. Animals were housed in ventilated rack caging with food and water ad libitum. The mice were acclimated for at least 5 days prior to tumor implantation.
The tumor model used in this study was NCI-H460 cell line which is a human NSCLC cell line obtained from the ATCC (Manassas, Va.). […] Cells from in vitro passage 9 were those implanted SC into study mice.
Treatments were initiated on DPI 8.
Tumor size measurements were recorded 2-3 times/week from the treatment initiation until the termination of the study.
(§1) Mean, standard deviation and standard error of the mean were determined for tumor volume for all animal groups at all assessments. Student's t test was performed on tumor volumes at each measurement day, including at the end of the study, to determine whether there were any statistically significant differences between combination treatment groups and single monotherapy treatment groups.

BxPC-3 tumors = format: in vivo, mice; settings: mg/kg/day: PM00104 0.90 IV, gemcitabine 180 IP
Description: Female CB17.SCID mice (Charles River Lab.) were utilized for all experiments. Animals were housed in ventilated rack caging with food and water ad libitum. The mice were acclimated for at least 5 days prior to tumor implantation with a tumor cell suspension.
The tumor model used in these studies was BxPC-3 cell line, which was obtained from the ATCC (Manassas, Va.).
Bacterial cultures were performed on aliquots of the cells prepared for implantation.
(§2) Treatments were initiated on DPI 14.
(§3) Tumor size measurements were recorded twice weekly from the treatment initiation until the termination of the study.
as §1

[1] = test system: BxPC-3 human pancreatic carcinoma cell line; experiment: IC50 determination, MTS assay, 72 h (Example 3); format: cell-based; settings: 72 hours of drug exposure
Description: (§4) Gemcitabine (Gemzar®) was the agent evaluated in combination with PM00104. The human pancreatic carcinoma cell lines selected for this assay were the following: BxPC-3, PANC-1, MIA PaCA-2, and SW1990 cell lines. BxPC-3 cell line was grown in RPMI 1640 medium supplemented with 10% FBS, 1.5 g/L sodium bicarbonate, 4.5 g/L glucose, 10 mM HEPES, 1 mM sodium pyruvate, and 2 mM L-glutamine. PANC-1 cell line was grown in DMEM supplemented with 10% FBS, 1.5 g/L sodium bicarbonate, 4.5 g/L glucose, and 4 mM L-glutamine. MIA PaCA-2 cell line was grown in DMEM supplemented with 10% FBS, 1.5 g/L sodium bicarbonate, 4.5 g/L glucose, 2.5% Horse Serum, and 2 mM L-glutamine. SW1990 cell line was grown in RPMI 1640 medium supplemented with 10% FBS and 2 mM L-glutamine.
(§5) a. […] It was used the same methodology as those disclosed in Example 1.
(§6) IC50 values were calculated from an average of three assays for each of the test agents.

[2] = test system: SW1990 human pancreatic carcinoma cell line; experiment: IC50 determination, MTS assay, 72 h (Example 3); format: cell-based; settings: 72 hours of drug exposure
Description: as §4, §5, §6

[3] = test system: PANC-1 human pancreatic carcinoma cell line; experiment: IC50 determination, MTS assay, 72 h (Example 3); format: cell-based; settings: 72 hours of drug exposure
Description: as §4, §5, §6

[4] = test system: MIA PaCA-2 human pancreatic carcinoma cell line; experiment: IC50 determination, MTS assay, 72 h (Example 3); format: cell-based; settings: 72 hours of drug exposure
Description: as §4, §5, §6

Hs746T tumors = format: in vivo, mice
Description: Female athymic nude mice (Harlan Sprague Dawley, Madison, Wis.) were utilized for all experiments. Animals were housed in ventilated rack caging with food and water ad libitum. The mice were acclimated for at least 5 days prior to tumor implantation with a tumor cell suspension.
The tumor model used in these studies was Hs746T cell line, which was obtained from the ATCC (Manassas, Va.).
as §2, §3, §1

[5] = test system: BT-474 (breast cancer) cell line; experiment: IC50 determination, MIT (tetrazolium) assay, 72 h (Example 18); format: cell-based; settings: Homo sapiens, BT-474, 72 h
Description: BT-474 cells were grown in RPMI supplemented with 1% ITS (insulin, transferrin and selenium), 10% Fetal Bovine Serum (FBS), 1% penicillin/streptomycin and 2 mM L-glutamine.
Before plating, cell cultures were trypsinized and cell number estimated using an automated flow cytometer.
Cells were harvested and seeded in 96 well microtiter plates at the appropriate cell density (5,000-10,000 cells) in 150 μL of media and incubated for 24 hours to allow the cells to attach before drug addition.
After the incubation period (72 hours), 50 μL of MIT solution was added to each microtiter well and incubated for further 8 hours at 37° C. The culture medium was then removed and 50 μl, of DMSO were added to dissolve the MIT crystals. Optical densities were read at 540 nm on spectrophotometer microplate reader.
IC50 values were calculated from an average of two to four assays for each of the test agents.

[6] = Gemcitabine 90 mg/kg/day IP, alone or with PM00104 0.9 mg/kg/day IV
[7] = PM00104 0.9 mg/kg/day IV and/or Gemcitabine 180 mg/kg/day IP
[8] = PM00104 0.90 IV, docetaxel 16 IP, oxaliplatin 8 IP mg/kg/day (G2, G3, G5, G7, G9), DPI 14, 21, 28

Nc1ccn([C@@H]2O[C@H](CO)[C@@H](O)C2(F)F)c(=O)n1 [Gemcitabine, gemcitabine]
% T/C on day 8 (NCI-H460 tumors; [6]): 108.6% | % T/C on day 11 (NCI-H460 tumors; [6]): 83.2% | % T/C on day 14 (NCI-H460 tumors; [6]): 90.2% | % T/C on day 18 (NCI-H460 tumors; [6]): 65.3% | % T/C on day 21 (NCI-H460 tumors; [6]): 73.4% | % T/C on day 25 (NCI-H460 tumors; [6]): 63.2% | % T/C on day 28 (NCI-H460 tumors; [6]): 76.9% | % T/C on day 8 (NCI-H460 tumors; [7]): 101.3% | % T/C on day 14 (NCI-H460 tumors; [7]): 67.5% | % T/C on day 18 (NCI-H460 tumors; [7]): 52.0% | % T/C on day 21 (NCI-H460 tumors; [7]): 69.3% | % T/C on day 25 (NCI-H460 tumors; [7]): 58.7% | % T/C on day 28 (NCI-H460 tumors; [7]): 56.8% | % Inhibition (BxPC-3 tumors; day 14): 3.1% | % T/C on day (BxPC-3 tumors; day 14): 96.9% | % Inhibition (BxPC-3 tumors; day 16): −44.6% | % T/C on day (BxPC-3 tumors; day 16): 144.6% | % Inhibition (BxPC-3 tumors; day 19): −15.6% | % T/C on day (BxPC-3 tumors; day 19): 115.6% | % Inhibition (BxPC-3 tumors; day 22): 25.5% | % T/C on day (BxPC-3 tumors; day 22): 74.5% | % Inhibition (BxPC-3 tumors; day 26): −6.1% | % T/C on day (BxPC-3 tumors; day 26): 106.1% | % Inhibition (BxPC-3 tumors; day 29): 20.7% | % T/C on day (BxPC-3 tumors; day 29): 79.3% | % Inhibition (BxPC-3 tumors; day 34): 31.3% | % T/C on day (BxPC-3 tumors; day 34): 68.7% | % Inhibition (BxPC-3 tumors; day 40): −33.9% | % T/C on day (BxPC-3 tumors; day 40): 133.9% | IC50 [1]: 0.84 µg/mL | IC50 [2]: 0.012 µg/mL | IC50 [3]: 110 µg/mL | IC50 [4]: 0.079 µg/mL

COc1c(C)cc2c(c1O)[C@@H]1[C@@H]3Cc4c(OC(C)=O)c(C)c5c(c4[C@H](CNC(=O)/C=C/c4cccc(C(F)(F)F)c4)N3[C@@H](O)[C@H](C2)N1C)OCO5 [PM00104]
% T/C on day 14 (Hs746T tumors; [8]): 99.9% | % T/C on day 19 (Hs746T tumors; [8]): 54.9% | % T/C on day 22 (Hs746T tumors; [8]): 40.8% | % T/C on day 26 (Hs746T tumors; [8]): 39.5% | % T/C on day 29 (Hs746T tumors; [8]): 30.4% | % T/C on day 32 (Hs746T tumors; [8]): 47.6% | % T/C on day 39 (Hs746T tumors; [8]): 80.3% | % Inhibition (Hs746T tumors; day 14, PM00104 0.9 and docetaxel 8 mg/kg/day): 0.1% | % Inhibition (Hs746T tumors; day 14, PM00104 0.9 and docetaxel 16 mg/kg/day): 0.1% | % Inhibition (Hs746T tumors; day 14, PM00104 0.9 and oxaliplatin 4 mg/kg/day): 0.1% | % Inhibition (Hs746T tumors; day 14, PM00104 0.9 and oxaliplatin 8 mg/kg/day): 0.1% | % Inhibition (Hs746T tumors; day 19, PM00104 0.9 and docetaxel 8 mg/kg/day): 45.1% | % Inhibition (Hs746T tumors; day 19, PM00104 0.9 and docetaxel 16 mg/kg/day): 45.1% | % Inhibition (Hs746T tumors; day 19, PM00104 0.9 and oxaliplatin 4 mg/kg/day): 45.1% | % Inhibition (Hs746T tumors; day 19, PM00104 0.9 and oxaliplatin 8 mg/kg/day): 45.1% | % Inhibition (Hs746T tumors; day 22, PM00104 0.9 and docetaxel 8 mg/kg/day): 59.2% | % Inhibition (Hs746T tumors; day 22, PM00104 0.9 and docetaxel 16 mg/kg/day): 59.2% | % Inhibition (Hs746T tumors; day 22, PM00104 0.9 and oxaliplatin 4 mg/kg/day): 59.2% | % Inhibition (Hs746T tumors; day 22, PM00104 0.9 and oxaliplatin 8 mg/kg/day): 59.2% | % Inhibition (Hs746T tumors; day 26, PM00104 0.9 and docetaxel 8 mg/kg/day): 60.5% | % Inhibition (Hs746T tumors; day 26, PM00104 0.9 and docetaxel 16 mg/kg/day): 60.5% | % Inhibition (Hs746T tumors; day 26, PM00104 0.9 and oxaliplatin 4 mg/kg/day): 60.5% | % Inhibition (Hs746T tumors; day 26, PM00104 0.9 and oxaliplatin 8 mg/kg/day): 60.5% | % Inhibition (Hs746T tumors; day 29, PM00104 0.9 and docetaxel 8 mg/kg/day): 69.6% | % Inhibition (Hs746T tumors; day 29, PM00104 0.9 and docetaxel 16 mg/kg/day): 69.6% | % Inhibition (Hs746T tumors; day 29, PM00104 0.9 and oxaliplatin 4 mg/kg/day): 69.6% | % Inhibition (Hs746T tumors; day 29, PM00104 0.9 and oxaliplatin 8 mg/kg/day): 69.6% | % Inhibition (Hs746T tumors; day 32, PM00104 0.9 and docetaxel 8 mg/kg/day): 52.4% | % Inhibition (Hs746T tumors; day 32, PM00104 0.9 and docetaxel 16 mg/kg/day): 52.4% | % Inhibition (Hs746T tumors; day 32, PM00104 0.9 and oxaliplatin 4 mg/kg/day): 52.4% | % Inhibition (Hs746T tumors; day 32, PM00104 0.9 and oxaliplatin 8 mg/kg/day): 52.4% | % Inhibition (Hs746T tumors; day 39, PM00104 0.9 and docetaxel 8 mg/kg/day): 19.7% | % Inhibition (Hs746T tumors; day 39, PM00104 0.9 and docetaxel 16 mg/kg/day): 19.7% | % Inhibition (Hs746T tumors; day 39, PM00104 0.9 and oxaliplatin 4 mg/kg/day): 19.7% | % Inhibition (Hs746T tumors; day 39, PM00104 0.9 and oxaliplatin 8 mg/kg/day): 19.7% | % T/C on day 8 (NCI-H460 tumors; [7]): 103.0% | % T/C on day 11 (NCI-H460 tumors; [7]): 98.5% | % T/C on day 14 (NCI-H460 tumors; [7]): 85.6% | % T/C on day 18 (NCI-H460 tumors; [7]): 90.8% | % T/C on day 21 (NCI-H460 tumors; [7]): 81.2% | % T/C on day 25 (NCI-H460 tumors; [7]): 76.7% | % T/C on day 28 (NCI-H460 tumors; [7]): 77.3% | % Inhibition (BxPC-3 tumors; day 14): −0.9% | % T/C on day (BxPC-3 tumors; day 14): 100.9% | % Inhibition (BxPC-3 tumors; day 16): −40.3% | % T/C on day (BxPC-3 tumors; day 16): 140.3% | % Inhibition (BxPC-3 tumors; day 19): −26.1% | % T/C on day (BxPC-3 tumors; day 19): 126.1% | % Inhibition (BxPC-3 tumors; day 22): −16.5% | % T/C on day (BxPC-3 tumors; day 22): 116.5% | % Inhibition (BxPC-3 tumors; day 26): 7.8% | % T/C on day (BxPC-3 tumors; day 26): 92.2% | % Inhibition (BxPC-3 tumors; day 29): −6.3% | % T/C on day (BxPC-3 tumors; day 29): 106.3% | % Inhibition (BxPC-3 tumors; day 34): −16.8% | % Inhibition (BxPC-3 tumors; day 40): −26.3% | % T/C on day (BxPC-3 tumors; day 40): 126.3% | IC50 [5]: 1 nM | IC50 [1]: 0.036 µg/mL | IC50 [2]: 0.0051 µg/mL | IC50 [3]: 0.015 µg/mL | IC50 [4]: 0.093 µg/mL

CC(=O)O[C@H]1C(=O)[C@@]2(C)[C@H]([C@H](OC(=O)c3ccccc3)[C@]3(O)C[C@H](OC(=O)[C@H](O)[C@@H](NC(=O)c4ccccc4)c4ccccc4)C(C)=C1C3(C)C)[C@]1(OC(C)=O)CO[C@@H]1C[C@@H]2O [paclitaxel]
IC50 [5]: 1.7 nM
